This passage reports IC50 results from patent US20260102383A1, “LPAR1 Inhibitors” (AbbVie Inc., priority 2024, published 2026).

As usually defined, the IC50 is the midpoint of a concentration-inhibition curve.

For this experiment, the target named is T1, human LPAR1 (Homo sapiens, UniProt Q92633).
T1 construct: host or cells: TangoEDG2-bla U2OS cells
The experiment is described as follows: Arrestin assay (Arrestin Reporter EDG2-bla U2OS), inhibition of LPA-stimulated signal. In kind it is cell-based. The following applies: TangoEDG2-bla U2OS cells expressing human LPAR1; 0.25 μM LPA; read-out: Arrestin Reporter EDG2-bla U2OS Human Merged IC50. As to the method: The inhibitory activity of compounds 15, 62, 77, 84 and 169 against LPAR1 was measured using an Arrestin assay in U2OS cells expressing human LPAR1.
FreeStyle media was warmed in a 37° C. water bath. Cryo-preserved vial(s) of TangoEDG2-bla U2OS cells were rapidly thawed in a 37° C. water bath. The thawed cells were added to FreeStyle media and cells were pelleted at 300×g for 5 minutes. The supernatant was aspirated, and cells were resuspended in FreeStyle media. Cell density was adjusted to 0.25×10^6 cells/mL. Cells (1×10^4 in 40 μL) were added to each well of Greiner 384 well black cell plate(s). Cell plate(s) were placed in a humidified 37° C./5% CO2 incubator for 18-20 hours. Dilutions of test compound were prepared at 6× final concentration; 12-point, 3-fold dilutions using HH Buffer (1×HBSS plus 20 mM HEPES). The 6× test compound was then added to the cell plate(s) at 10 μL/well. The final concentration ranged from 10 μM to 0.00006 μM. Cell plate(s) were incubated in a humidified 37° C./5% CO2 incubator for 1 hour. During the incubation, 6×LPA was prepared at 1.5 μM in 0.1% BSA HH Buffer. After the 1-hour incubation of test compound with cells, the LPA was added to the cell plate(s) at 10 μL/well (final LPA concentration of 0.25 μM). Cell plate(s) were returned to a humidified 37° C./5% CO2 incubator for 3 hours. The Development solution was made up per the LiveBLAzerFRET B/G kit protocol. The Development solution was added to the cell plate(s) at 10 μL/well. Cell plates were incubated in the dark at room temperature for 2 hours. Plate(s) were read on an Envision Plate Reader (Perkin Elmer) to read fluorescence; excitation at 409 nm with emission at 460 nm and 530 nm. Raw Data for analysis is the ratio of emission at 460 nm divided by emission 530 nm. The formula used to determine % Inhibition is as follows (1−(Raw Data−Low Average)/(High Average−Low Average))*100. Percent Inhibition was plotted to determine IC50 value with GraphPad Prism 9.5.0 software using Variable slope 4-parameter curve fit analysis.
Additional compounds of the present disclosure were synthesized in a manner similar to the compounds described above and understood by a person of ordinary skill in the art. The inhibitory activity of the compounds of the present disclosure against LPAR1 was measured using the above-referenced Arrestin Assay protocol.

T1 sequence (Q92633 whole entry): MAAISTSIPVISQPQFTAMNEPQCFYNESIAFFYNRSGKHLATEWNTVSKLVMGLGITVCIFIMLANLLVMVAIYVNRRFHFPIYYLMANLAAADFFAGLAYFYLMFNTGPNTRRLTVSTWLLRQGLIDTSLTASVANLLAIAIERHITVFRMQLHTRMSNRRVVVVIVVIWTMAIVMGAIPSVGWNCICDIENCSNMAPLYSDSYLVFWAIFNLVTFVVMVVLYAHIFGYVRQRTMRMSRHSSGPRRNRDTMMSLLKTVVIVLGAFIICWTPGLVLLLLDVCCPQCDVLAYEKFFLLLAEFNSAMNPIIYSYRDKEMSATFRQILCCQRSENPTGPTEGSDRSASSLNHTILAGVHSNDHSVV

Regarding `COc1ccc([C@@H](CN2CCC(C(=O)Nc3ccc(Cl)cc3OC(F)F)(n3nccc3C(C)C)CC2)C(=O)O)cc1` [Compound 29, (2S)-3-[4-[[4-chloro-2-(difluoromethoxy)phenyl]carbamoyl]-4-(5-isopropylpyrazol-1-yl)-1-piperidyl]-2-(4-methoxyphenyl) propanoic acid], the IC50 amounted to 4.75 nM. For `CC(C)c1ccnn1C1(C(=O)Nc2ccc(Cl)cc2OC(F)F)CCN(CC2(C(=O)O)CCCCO2)CC1` (centres unmarked) [Compound 30, 2-[[4-[[4-chloro-2-(difluoromethoxy)phenyl]carbamoyl]-4-(5-isopropylpyrazol-1-yl)-1-piperidyl]methyl] tetrahydropyran-2-carboxylic acid], the IC50 amounted to 12.6 nM. Consider `CC(C)c1ccnn1C1(C(=O)Nc2ccc(Cl)cc2OC(F)F)CCN(CC2(C(=O)O)CC3(CCC3)C2)CC1` [Compound 31, 2-[[4-[[4-chloro-2-(difluoromethoxy)phenyl]carbamoyl]-4-(5-isopropylpyrazol-1-yl)-1-piperidyl]methyl]spiro[3.3] heptane-2-carboxylic acid], for which the IC50 is 6.55 nM. `COc1cccc([C@@H](CN2CCC(C(=O)Nc3ccc(Cl)cc3OC(F)F)(n3nccc3C(C)C)CC2)C(=O)O)c1` [Compound 33, (2S)-3-[4-[[4-chloro-2-(difluoromethoxy)phenyl]carbamoyl]-4-(5-isopropylpyrazol-1-yl)-1-piperidyl]-2-(3-methoxyphenyl)propanoic acid]: the IC50 came to 5.13 nM. In the case of `CC(C)c1ccnn1C1(C(=O)Nc2ccc(Cl)cc2OC(F)F)CCN(CC2(C(=O)O)CCC(O)CC2)CC1` (centres unmarked) [Compound 34, 1-[[4-[[4-chloro-2-(difluoromethoxy)phenyl]carbamoyl]-4-(5-isopropylpyrazol-1-yl)-1-piperidyl]methyl]-4-hydroxy-cyclohexanecarboxylic acid], the IC50 is 33.3 nM.

Turning to `CC1(C)CCc2cnn(C3(C(=O)Nc4ccc(Cl)cc4OC(F)F)CCN(CC4(C(=O)O)CCOCC4)CC3)c21` [Compound 35, 4-[[4-[[4-chloro-2-(difluoromethoxy)phenyl]carbamoyl]-4-(6,6-dimethyl-4,5-dihydrocyclopenta[c]pyrazol-1-yl)-1-piperidyl]methyl]tetrahydropyran-4-carboxylic acid], the IC50 came to 43.6 nM.

Consider `CC(C)c1ccnn1C1(C(=O)Nc2ccc(Cl)cc2OC(F)F)CCN(Cc2cccc(C(=O)O)n2)CC1` [Compound 36, 6-[[4-[[4-chloro-2-(difluoromethoxy)phenyl]carbamoyl]-4-(5-isopropylpyrazol-1-yl)-1-piperidyl]methyl]pyridine-2-carboxylic acid], for which the IC50 turned out to be 55.3 nM. Then `CC(C)c1ccnn1C1(C(=O)Nc2ccc(Cl)cc2OC(F)F)CCN(Cc2nc(C(=O)O)cs2)CC1` [Compound 37, 2-[[4-[[4-chloro-2-(difluoromethoxy)phenyl]carbamoyl]-4-(5-isopropylpyrazol-1-yl)-1-piperidyl]methyl]thiazole-4-carboxylic acid], with 14.6 nM; and `CC(C)c1ccnn1C1(C(=O)Nc2ccc(Cl)cc2OC(F)F)CCN(CC2(C(=O)O)CC3(COC3)C2)CC1` [Compound 40, 6-[[4-[[4-chloro-2-(difluoromethoxy)phenyl]carbamoyl]-4-(5-isopropylpyrazol-1-yl)-1-piperidyl]methyl]-2-oxaspiro[3.3]heptane-6-carboxylic acid], with 22.5 nM; and `CCC(=O)N1CCC(CN2CCC(C(=O)Nc3ccc(Cl)cc3OC(F)F)(n3nccc3C(C)C)CC2)(C(=O)O)CC1` [Compound 41, 4-[[4-[[4-chloro-2-(difluoromethoxy)phenyl]carbamoyl]-4-(5-isopropylpyrazol-1-yl)-1-piperidyl]methyl]-1-propanoyl-piperidine-4-carboxylic acid], with 22.8 nM.

`CC(C)c1ccnn1C1(C(=O)Nc2ccc(Cl)cc2OC(F)F)CCN(CC2(C(=O)O)CCCCC2)CC1` [Compound 42, 1-[[4-[[4-chloro-2-(difluoromethoxy)phenyl]carbamoyl]-4-(5-isopropylpyrazol-1-yl)-1-piperidyl]methyl]cyclohexanecarboxylic acid]: the IC50 turned out to be 19.1 nM.
